The values below come from PMC6149822, “A New Series of Pyrrole-Based Chalcones: Synthesis and Evaluation of Antimicrobial Activity, Cytotoxicity, and Genotoxicity” (Molecules : A Journal of Synthetic Chemistry and Natural …, 2017).

One assay deals with C6 rat glioma cell line. Description: MTT assay. The format is cell-based. Conditions: Rattus norvegicus, C6. The protocol: (§1) The anticancer effects of compounds 1–10 on A549 human lung adenocarcinoma (ATCC® CCL-185™), HepG2 human hepatocellular carcinoma (ATCC® HB-8065™), and C6 rat glioma (ATCC® CCL107™) cell lines were assessed using 3-(4,5-Dimethylthiazol-2-yl)-2,5-diphenyltetrazolium bromide (MTT) assay, whereas the selectivity of compounds 1–10 was tested using NIH/3T3 mouse embryonic fibroblast cell line (ATCC® CRL-1658™, London, UK). All cell lines were incubated according to the supplier’s recommendations. The cells were seeded as 1 × 10^4 cells into each well of the 96-well plates. MTT assay was performed as previously described. The compounds were tested between the concentrations equal to 1 mM and 0.000316 mM (1.0, 0.316, 0.10, 0.0316, 0.01, 0.00316, 0.001, 0.000316 mM). Stock solutions of compounds were prepared in dimethyl sulfoxide (DMSO) and further dilutions were made with fresh culture medium. The final DMSO concentration was under 1% [34] and cisplatin was used as a positive control. Inhibition % was calculated for each concentration according to the formula below, and IC50 values were determined by plotting a dose–response curve of inhibition % versus compound concentrations tested. All experiments were performed in quadruplicate.Inhibition % = 100 − [(ODtest compound − ODblank/ODsolvent control − ODblank)] × 100(1)

Assay [1] deals with A549 human lung adenocarcinoma cell line. Description: MTT assay. The format is cell-based. Conditions: Homo sapiens, A549. As for the experimental part:
as §1

Assay [2] concerns NIH/3T3 mouse embryonic fibroblast cell line. Description: MTT assay. The format is cell-based. Conditions: Mus musculus, NIH3T3, healthy cells for selectivity. As for the experimental part:
as §1
A general note: Formazan colour is commonly taken as a measure of viable cells.

For assay [3], the system named is HepG2 human hepatocellular carcinoma cell line. Briefly: MTT assay. It is filed as cell-based. Particulars: Homo sapiens, HepG2. As for the experimental part: as §1
Another assay concerns C. glabrata (ATCC 90030). Briefly: Microdilution susceptibility assay (MIC). It is filed as cell-based, Candida glabrata. Particulars: Nakaseomyces glabratus, ATCC90030. As for the experimental part:
(§2) Compounds 1–10 were screened for their antimicrobial activity against gram-negative bacteria, gram-positive bacteria, and yeasts, listed in Table 1. Bacteria were grown in Mueller-Hinton Broth and yeasts were grown in Sabouraud Dextrose Broth (SDB) during experiments. Overnight cultures were prepared routinely by subculturing of stock culture onto Mueller-Hinton Agar for bacteria and Sabouraud Dextrose Agar for yeasts.
(§3) Microdilution susceptibility assay was used for the determination of antibacterial and anticandidal efficacy of compounds 1–10. Chloramphenicol and ketoconazole were used as positive controls for bacteria and yeasts, respectively. All experiments were designed according to the Clinical Laboratory Standards Institute (CLSI). All chemicals were dissolved in dimethyl sulfoxide (DMSO) to obtain stock solution (10 mg/mL). Two-fold serial dilutions (800, 400, 200...0.78 µg/mL) of the compounds were prepared from stock solutions with dH2O. 100 µL of each solution was transferred to 96-well microtiter plates and 100 µL of 10^6 CFU/mL of bacteria and 2 × 10^3 of CFU/mL yeast were added to related wells. As negative controls, wells including microorganisms without agents and wells including agents without microorganisms were used. The plates were kept at 35 °C for 18–20 h and the growth was determined with resazurin (20 mg/mL). Assays were carried out in triplicate.

The test system of another assay is C. krusei. Description: ATP luminescence microbial cell viability assay. It is filed as cell-based, Candida krusei. Conditions: 24 h treatment, result in words. The protocol: A model from BioTek Instruments Inc. combined with a BacTiter-Glo^TM Microbial Cell Viability assay (Promega Corp., Madison, WI, USA) was used to provide a sensitive and rapid method for determining the number of viable microbial cells in culture based on quantitation of the ATP present. […] After incubation, cultures were added into the wells (final concentration of bacteria was 5 × 10^5 CFU/mL and 2.5 × 10^6 CFU/mL for yeasts). After adding the BacTiter reagent, incubation time for bacteria and yeasts was 5 min and 15 min, respectively.
The assay generates a “glow-type” luminescent signal, produced by the luciferase reaction. Briefly, after chemicals and strains were incubated for 24 h, 100 µL of the culture was taken from each well and mixed with the same volume of the BacTiter-Glo™ reagent in a white, opaque-walled microtiter plate. Control wells containing medium without cells were prepared to obtain a value for background luminescence. Cells without compound were used as an ATP-positive control. The microplates were further incubated under agitation for 7 min. Bioluminescence was recorded in a multi-detection microplate reader (BioTek Synergy 2 Multi-Mode Microplate Reader, BioTek Instruments, Winooski, VT, USA). […] Experiments were performed in triplicate and each sample was measured in four replicates.

The test system of another assay is C. krusei (ATCC 6258). Briefly: Microdilution susceptibility assay (MIC). Conditions: Pichia kudriavzevii, ATCC6258. The format is cell-based, Candida krusei. The protocol: as §2, §3

Converted amounts (≈) assume the structure as drawn. Where only a bound is given, the exact number is not on record here.

Consider `Cn1cccc1C(=O)C=Cc1ccc(-c2ccc(Cl)cc2)o1` [Compound 7, 1-(1-Methyl-1H-pyrrol-2-yl)-3-(5-(4-chlorophenyl)furan-2-yl)prop-2-en-1-one], for which the concentration for half-maximal inhibition (IC50) with C6 rat glioma cell line came out at 311 µg/mL (≈ 998 µM); in assay [1] it was 98 µg/mL (≈ 314 µM); in assay [2] it was 40 µg/mL (≈ 128 µM); in assay [3] it was 23 µg/mL (≈ 73.8 µM). Besides, the figures for the MIC in the assay with C. glabrata (ATCC 90030) and in the assay on C. krusei (ATCC 6258) were 100 µg/mL (≈ 321 µM) and 25 µg/mL (≈ 80.2 µM), respectively. For the same compound, the “antifungal activity in ATP bioluminescence assay” value in the assay on C. krusei was “more statistically significant antifungal activity against C. krusei than ketoconazole”.
For `Cn1cccc1C(=O)C=Cc1ccc(-c2cc(Cl)ccc2Cl)o1` [Compound 9, 1-(1-Methyl-1H-pyrrol-2-yl)-3-(5-(2,5-dichlorophenyl)furan-2-yl)prop-2-en-1-one], the IC50 with C6 rat glioma cell line is 109 µg/mL (≈ 315 µM); in assay [1], above 346 µg/mL; in assay [2], 109 µg/mL (≈ 315 µM); in assay [3], 101 µg/mL (≈ 292 µM). In addition, the MIC against C. glabrata (ATCC 90030) was 100 µg/mL (≈ 289 µM); with C. krusei (ATCC 6258), 25 µg/mL (≈ 72.2 µM). The “antifungal activity in ATP bioluminescence assay” value in the assay on C. krusei was “more statistically significant antifungal activity against C. krusei than ketoconazole”.

In general, IC50 refers to the concentration that inhibits the measured activity by half. A lower IC50 goes with greater potency. A word on the MIC: it is the least concentration at which growth counts as inhibited. High values mean a less susceptible organism, low ones a more susceptible organism.
